Assay results reported in article doi:10.1101/161430v2 (biorxiv, 2019).

What was measured:
[1] = target: T1, human AChE (acetylcholinesterase) (Homo sapiens, UniProt P22303); assay: biochemical
[2] = target: T2, human carboxylesterase 1 (CES1, hCES1) (Homo sapiens, UniProt P23141); assay: biochemical
T2 sequence (P23141 18-567): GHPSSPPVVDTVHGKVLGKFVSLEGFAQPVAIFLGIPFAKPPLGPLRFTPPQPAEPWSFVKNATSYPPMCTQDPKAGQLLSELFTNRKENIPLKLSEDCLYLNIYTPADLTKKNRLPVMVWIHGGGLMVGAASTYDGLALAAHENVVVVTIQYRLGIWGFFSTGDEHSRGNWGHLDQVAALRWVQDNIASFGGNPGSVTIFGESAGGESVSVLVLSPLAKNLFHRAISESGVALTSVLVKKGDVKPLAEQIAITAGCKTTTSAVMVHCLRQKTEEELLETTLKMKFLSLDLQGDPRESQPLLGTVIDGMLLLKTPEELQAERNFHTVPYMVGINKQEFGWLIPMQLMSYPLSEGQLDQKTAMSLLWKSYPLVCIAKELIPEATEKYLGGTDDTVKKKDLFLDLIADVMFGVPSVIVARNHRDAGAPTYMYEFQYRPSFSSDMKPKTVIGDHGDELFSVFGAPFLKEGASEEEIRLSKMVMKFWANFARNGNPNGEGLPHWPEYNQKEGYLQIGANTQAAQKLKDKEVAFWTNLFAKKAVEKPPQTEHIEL

[3] = target: T3, human carboxylesterase 2 (CES2, hCES2) (Homo sapiens, UniProt O00748); assay: biochemical
T3 sequence (O00748 27-559): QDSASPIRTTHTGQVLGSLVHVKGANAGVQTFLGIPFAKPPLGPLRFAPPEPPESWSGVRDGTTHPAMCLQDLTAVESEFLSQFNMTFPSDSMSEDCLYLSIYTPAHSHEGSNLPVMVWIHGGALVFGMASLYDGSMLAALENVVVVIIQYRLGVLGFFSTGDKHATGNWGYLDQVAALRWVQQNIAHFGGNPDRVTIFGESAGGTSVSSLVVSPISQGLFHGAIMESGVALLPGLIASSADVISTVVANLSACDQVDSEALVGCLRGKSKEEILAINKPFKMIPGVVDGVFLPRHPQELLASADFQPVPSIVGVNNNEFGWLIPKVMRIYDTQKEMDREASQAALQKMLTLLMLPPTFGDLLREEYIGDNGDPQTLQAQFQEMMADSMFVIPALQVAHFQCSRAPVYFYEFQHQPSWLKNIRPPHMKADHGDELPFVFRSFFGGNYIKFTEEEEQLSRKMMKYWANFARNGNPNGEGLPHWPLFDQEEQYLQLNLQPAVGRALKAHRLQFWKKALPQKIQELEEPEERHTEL

[4] = target: T3, human carboxylesterase 2 (CES2, hCES2); assay: competition with 4-nitrophenyl acetate, […] nm; type: biochemical
[5] = target: T4, human BChE (butyrylcholinesterase, BuChE) (Homo sapiens, UniProt P06276); assay: Ellman assay, […] nm; type: biochemical
T4 sequence (P06276 29-602): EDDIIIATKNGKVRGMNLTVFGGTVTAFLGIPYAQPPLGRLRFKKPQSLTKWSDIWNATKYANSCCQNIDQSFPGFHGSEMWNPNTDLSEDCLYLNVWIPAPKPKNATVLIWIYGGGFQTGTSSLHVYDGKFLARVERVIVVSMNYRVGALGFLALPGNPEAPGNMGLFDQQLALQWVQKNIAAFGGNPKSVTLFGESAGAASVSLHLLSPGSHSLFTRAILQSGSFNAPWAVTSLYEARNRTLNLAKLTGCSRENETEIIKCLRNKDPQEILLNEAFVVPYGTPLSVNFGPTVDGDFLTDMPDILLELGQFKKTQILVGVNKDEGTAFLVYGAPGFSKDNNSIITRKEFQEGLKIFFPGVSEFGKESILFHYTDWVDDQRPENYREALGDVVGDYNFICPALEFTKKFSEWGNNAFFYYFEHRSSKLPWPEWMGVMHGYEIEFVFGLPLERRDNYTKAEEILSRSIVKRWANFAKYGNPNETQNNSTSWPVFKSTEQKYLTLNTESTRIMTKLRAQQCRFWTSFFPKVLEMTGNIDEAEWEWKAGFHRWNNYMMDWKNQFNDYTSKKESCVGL

in vitro [6] = conditions: human
[7] = target: T2, human carboxylesterase 1 (CES1, hCES1); assay: competition with 4-nitrophenyl acetate, […] nm; type: biochemical
[8] = target: T1, human AChE (acetylcholinesterase); assay: Ellman assay, […] nm; type: biochemical
PC3 = assay: in vitro; conditions: read-out: EC50 cmpd 3.10; human, 48 h
[9] = target: T4, human BChE (butyrylcholinesterase, BuChE); assay: biochemical
HeLa = assay: in vitro; conditions: read-out: EC50 viability, 3.10; human, 48 h
in vitro [10] = conditions: human, EC50 viability, 3.10
Colo205 = assay: in vitro; conditions: read-out: EC50 viability, 3.10; human, 48 h
H23 = assay: in vitro; conditions: read-out: EC50 viability, 3.10; human, 48 h
HT29 = assay: in vitro; conditions: read-out: EC50 viability, 3.10; human, 48 h
MDA-MB-231 = assay: in vitro; conditions: read-out: EC50 viability, 3.10; human, 48 h
HTC116 = assay: in vitro; conditions: read-out: EC50 viability, 3.10; human, 48 h

T1 sequence (P22303 32-614): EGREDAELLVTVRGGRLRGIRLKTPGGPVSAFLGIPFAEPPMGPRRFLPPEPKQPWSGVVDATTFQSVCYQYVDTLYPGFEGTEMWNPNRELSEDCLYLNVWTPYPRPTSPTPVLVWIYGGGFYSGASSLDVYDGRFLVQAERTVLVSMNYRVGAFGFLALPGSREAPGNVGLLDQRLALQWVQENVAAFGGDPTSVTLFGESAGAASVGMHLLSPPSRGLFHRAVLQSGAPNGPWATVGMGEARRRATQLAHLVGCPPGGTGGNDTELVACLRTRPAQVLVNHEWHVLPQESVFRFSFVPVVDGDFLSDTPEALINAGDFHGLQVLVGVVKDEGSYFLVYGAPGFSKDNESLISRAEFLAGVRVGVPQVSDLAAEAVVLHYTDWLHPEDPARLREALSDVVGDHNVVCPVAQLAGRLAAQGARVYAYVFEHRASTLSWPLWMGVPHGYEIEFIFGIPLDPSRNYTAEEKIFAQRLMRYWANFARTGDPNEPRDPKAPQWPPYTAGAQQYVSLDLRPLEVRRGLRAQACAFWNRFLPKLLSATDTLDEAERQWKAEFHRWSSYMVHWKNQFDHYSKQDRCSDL

SMILES | IC50 [1] | IC50 [2] | IC50 [3] | Ki [4] | Ki [5] | CC50 at 48 h (in vitro [6]; 263t cells) | Ki [7] | Ki [8] | CC50 at 48 h (in vitro [6]) | CC50 (PC3) | IC50 [9] | CC50 (HeLa) | CC50 at 48 h (in vitro [10]) | CC50 (Colo205) | CC50 (H23) | CC50 (HT29) | CC50 (MDA-MB-231) | CC50 (HTC116)
OB(O)c1cc(Br)cc(N2CCCC2)c1 [compound 3] | 61000 nM | 7.4 nM | 37 nM | 21 nM | 260 nM | > 100000 nM | 4.1 nM | 25000 nM |  |  |  |  |  |  |  |  |  | 
OB(O)c1cc(Br)cc(Oc2ccccc2)c1 [3.10, compound 3.10] | 23000 nM | 2 nM | 3.8 nM | 2.1 nM | 94 nM |  | 1.1 nM | 9300 nM | > 100000 nM | > 100000 nM | 490 nM | > 100000 nM | > 100000 nM | > 100000 nM | > 100000 nM | > 100000 nM | > 100000 nM | > 100000 nM
